Reference: BindingDB's records for doi:10.1016/j.bmcl.2006.09.018 (Gsk, 2006)

Legend:
[1] = biological target: T1, Inhibitor of nuclear factor kappa-B kinase subunit beta (Homo sapiens, UniProt O14920); experiment: IKK Kinase Inhibition Assay; details: pH 7.4; 22 °C
T1 sequence (O14920 whole entry): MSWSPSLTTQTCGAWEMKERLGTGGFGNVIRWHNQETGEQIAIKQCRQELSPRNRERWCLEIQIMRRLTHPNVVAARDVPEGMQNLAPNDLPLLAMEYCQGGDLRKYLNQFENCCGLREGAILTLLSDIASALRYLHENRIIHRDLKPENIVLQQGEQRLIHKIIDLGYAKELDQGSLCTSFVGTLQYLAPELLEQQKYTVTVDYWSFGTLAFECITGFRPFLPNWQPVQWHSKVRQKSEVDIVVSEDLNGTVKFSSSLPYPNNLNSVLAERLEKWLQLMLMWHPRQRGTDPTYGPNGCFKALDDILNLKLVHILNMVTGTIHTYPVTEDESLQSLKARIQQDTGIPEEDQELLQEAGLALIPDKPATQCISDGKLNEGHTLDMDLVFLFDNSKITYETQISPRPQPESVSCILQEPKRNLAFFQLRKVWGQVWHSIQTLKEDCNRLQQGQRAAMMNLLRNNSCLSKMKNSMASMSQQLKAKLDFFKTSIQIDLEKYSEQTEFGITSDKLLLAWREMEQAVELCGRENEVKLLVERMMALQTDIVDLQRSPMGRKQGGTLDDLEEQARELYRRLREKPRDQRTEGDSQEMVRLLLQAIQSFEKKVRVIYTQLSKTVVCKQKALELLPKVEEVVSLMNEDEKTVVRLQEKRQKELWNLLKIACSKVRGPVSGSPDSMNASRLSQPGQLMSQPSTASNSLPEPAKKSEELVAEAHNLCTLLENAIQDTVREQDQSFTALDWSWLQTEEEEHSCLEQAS
Description: (§1) IKK kinase activity was assessed using a time-resolved fluorescence resonance energy transfer (TR-FRET) assay. The reaction was initiated by the addition of GST-IKBalpha substrate/ATP to the reaction buffer containing IKK kinase and test compounds. After incubation, detection reagent containing antiphosphoserine IKBalpha monoclonal antibody labelled with europium chelate, and an APC-labelled anti-GST antibody was added.

[2] = biological target: Serine/threonine-protein kinase PLK1 (Homo sapiens, UniProt P53350); experiment: Scintillation Proximity Assay (SPA); details: pH 7.2; 22 °C
Description: The compound inhibitory activity was determined by incubation with purified PLK1 and biotinylated peptide substrate in the presence ATP/[gamma-33P]ATP. After incubation, the phosphorylated substrate was separated from nonincorporated radioactive ATP using SPA beads. Incorporated radioactivity was measured using Packard TopCount.

[3] = biological target: T2, Inhibitor of nuclear factor kappa-B kinase subunit epsilon (Homo sapiens, UniProt Q14164); experiment: IKK Kinase Inhibition Assay; details: pH 7.4; 22 °C
T2 sequence (Q14164 whole entry): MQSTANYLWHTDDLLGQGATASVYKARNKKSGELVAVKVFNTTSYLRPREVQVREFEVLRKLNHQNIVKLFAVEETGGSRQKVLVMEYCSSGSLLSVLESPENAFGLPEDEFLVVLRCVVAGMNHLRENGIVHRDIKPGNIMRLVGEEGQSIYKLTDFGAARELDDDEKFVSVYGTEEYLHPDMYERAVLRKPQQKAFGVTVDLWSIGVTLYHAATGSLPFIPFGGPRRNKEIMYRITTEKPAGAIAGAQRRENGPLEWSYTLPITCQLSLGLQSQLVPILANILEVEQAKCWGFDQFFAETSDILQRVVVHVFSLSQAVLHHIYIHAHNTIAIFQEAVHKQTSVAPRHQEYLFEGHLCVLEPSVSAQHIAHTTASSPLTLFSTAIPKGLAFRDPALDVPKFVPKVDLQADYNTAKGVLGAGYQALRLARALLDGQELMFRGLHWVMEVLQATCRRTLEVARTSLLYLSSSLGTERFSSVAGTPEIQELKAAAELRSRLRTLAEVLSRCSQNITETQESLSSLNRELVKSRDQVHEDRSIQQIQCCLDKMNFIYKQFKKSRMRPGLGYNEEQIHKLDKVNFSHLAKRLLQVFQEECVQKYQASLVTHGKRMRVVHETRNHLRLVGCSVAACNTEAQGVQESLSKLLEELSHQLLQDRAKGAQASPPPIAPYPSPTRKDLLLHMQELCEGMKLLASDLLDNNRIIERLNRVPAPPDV
Description: as §1

Sequence of Serine/threonine-protein kinase PLK1 (P53350 whole entry): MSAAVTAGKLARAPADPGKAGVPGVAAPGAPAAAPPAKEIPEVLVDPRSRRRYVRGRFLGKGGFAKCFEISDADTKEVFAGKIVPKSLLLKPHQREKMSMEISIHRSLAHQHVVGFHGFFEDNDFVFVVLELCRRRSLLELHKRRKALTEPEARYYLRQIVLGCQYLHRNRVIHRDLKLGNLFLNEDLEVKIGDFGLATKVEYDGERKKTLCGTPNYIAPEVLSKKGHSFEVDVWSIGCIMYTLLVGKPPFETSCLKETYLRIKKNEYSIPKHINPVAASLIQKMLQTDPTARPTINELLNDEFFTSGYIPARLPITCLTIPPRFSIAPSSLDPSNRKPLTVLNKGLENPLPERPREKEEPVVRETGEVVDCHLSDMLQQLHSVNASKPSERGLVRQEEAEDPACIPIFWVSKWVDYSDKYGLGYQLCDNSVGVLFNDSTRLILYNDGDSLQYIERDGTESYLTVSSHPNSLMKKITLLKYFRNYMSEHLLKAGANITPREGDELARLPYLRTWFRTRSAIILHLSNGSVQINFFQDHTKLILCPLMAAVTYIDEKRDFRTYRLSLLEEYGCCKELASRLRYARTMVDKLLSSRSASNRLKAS

| Structure (SMILES) | IC50 [1] [µM] | IC50 [2] [µM] | IC50 [3] [µM] |
| --- | --- | --- | --- |
| COc1cc2ncn(-c3cc(OCC4CCCO4)c(C#N)s3)c2cc1OC (stereo not given) [5-(5,6-dimethoxy-1H-1,3-benzodiazol-1-yl)-3-(oxolan-2-ylmethoxy)thiophene-2-carbonitrile] | > 15.8 | > 10 | – |
| COc1cc2ncn(-c3cc(OCC4CCCO4)c(C(N)=O)s3)c2cc1OC (stereo not given) [5-(5,6-dimethoxy-1H-1,3-benzodiazol-1-yl)-3-(oxolan-2-ylmethoxy)thiophene-2-carboxamide] | > 15.8 | – | > 15.8 |
| COc1cc2ncn(-c3cc(OCc4ccccc4S(C)(=O)=O)c(C#N)s3)c2cc1OC [5-(5,6-dimethoxy-1H-1,3-benzodiazol-1-yl)-3-[(2-methanesulfonylphenyl)methoxy]thiophene-2-carbonitrile] | > 15.8 | – | – |
| COc1cc2ncn(-c3cc(OCc4ccc(S(C)(=O)=O)cc4)c(C#N)s3)c2cc1OC [5-(5,6-dimethoxy-1H-1,3-benzodiazol-1-yl)-3-[(4-methanesulfonylphenyl)methoxy]thiophene-2-carbonitrile] | > 15.8 | – | – |
| Cc1ccc(COc2cc(-n3cnc4ccccc43)sc2C(N)=O)cc1 [BMCL191018 Compound 9] | – | 0.126 | 3.98 |
| COc1cc2ncn(-c3cc(OCc4ccc(S(C)(=O)=O)cc4)c(C(N)=O)s3)c2cc1OC [BMCL191018 Compound 39] | > 15.8 | – | > 15.8 |
